The series can be described thus: Pharmacokinetics in beagles (Test Example 5). The format is in vivo. The settings on record: plasma EPA, male beagles fasted, oral, 600 mg EPA-E, baseline-corrected. Here is the method: The composition of Example 14 was orally administered to 6 male beagles (at the age of 2 to 6 years with the body weight of 13 kg, 3 Marshall beagles and 3 Nosan beagles) under fasting conditions, and blood EPA concentration was evaluated. The test animals had been fasted since 18 hours or more before the administration, and each animal was administered with the composition in an amount corresponding to 600 mg of the EPA-E. Blood was collected before the administration, and 0.5, 1, 1.5, 2, 3, 4, 6, 8, and 24 hours after the administration, and plasma was separated to measure plasma EPA concentration by LC/MS/MS (method in which a sample is isolated by liquid chromatography, then subjected to mass spectrometry to conduct separation and measurement thereon). The control group was administered with the EPA-E stock solution encapsulated in a capsule. […] In the calculation of each parameter, correction was made by subtracting the blood EPA concentration before the administration from the measured blood concentration.

In turn, `CC/C=C\C/C=C\C/C=C\C/C=C\C/C=C\CCCC(=O)OCC` [EPA-E Stock solution, Ethyl eicosapentaenoate ester] returned an AUC0-2 of 14.4 µg·h/mL, an AUC0-24 of 188 µg·h/mL and a Cmax of 16600 ng/mL.

The values above are taken from patent publication US9801843B2, “Self-emulsifying composition of ω3 fatty acid” (priority 2013, dated 2017).
